Reference: patent publication US8952024B2, “Herbicidal pyrimidone derivatives” (E I du Pont de Nemours and Company, priority 2009, dated 2015)
Like-named read-outs stand apart in the source and are kept apart here.

Legend:
Assay type in all cases: in vivo
corn (Zea mays) = assay: Test A pre-/postemergence plant response; conditions: Zea mays, 240 h; for Corn plant response rating (crop injury, 0 = no effect, 100 = complete kill) at 125 g/ha: 125 g ai/ha
Method in brief: (§1)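 Each species was treated preemergence via directed soil spray and postemergence at the one- to two-leaf stage, with compounds formulated in a non-phytotoxic solvent plus surfactant. Visual injury relative to untreated controls was rated after about ten days on a 0–100 scale.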

[1] = tested on: giant foxtail (Setaria faberii); assay: Test A pre-/postemergence plant response; conditions: Setaria faberi, 240 h, read-out: Plant response rating, Foxtail, Giant; for pest or weed control at 125 g/ha: 125 g ai/ha; for pest or weed control at 500 g/ha: 500 g ai/ha, approx. ten days
Method in brief: as §1

[2] = tested on: large crabgrass (Digitaria sanguinalis); assay: Test A pre-/postemergence plant response; conditions: Digitaria sanguinalis, 240 h, read-out: Plant response rating, Crabgrass, Large; for pest or weed control at 125 g/ha: 125 g ai/ha; for pest or weed control at 500 g/ha: 500 g ai/ha, approx. ten days
Method in brief: as §1

[3] = tested on: morningglory (Ipomoea spp.); assay: Test A pre-/postemergence plant response; conditions: Ipomoea, 240 h, read-out: Plant response rating, Morningglory; for pest or weed control at 125 g/ha: 125 g ai/ha; for pest or weed control at 500 g/ha: 500 g ai/ha, approx. ten days
Method in brief: as §1

[4] = tested on: velvetleaf (Abutilon theophrasti); assay: Test A pre-/postemergence plant response; conditions: Abutilon theophrasti, 240 h, read-out: Plant response rating, Velvetleaf; for pest or weed control at 125 g/ha: 125 g ai/ha; for pest or weed control at 500 g/ha: 500 g ai/ha, approx. ten days
Method in brief: as §1

[5] = tested on: wheat (Triticum aestivum); assay: Test A pre-/postemergence plant response; conditions: Triticum aestivum, 240 h, read-out: Plant response rating, Wheat; for plant injury at 125 g/ha: 125 g ai/ha; for plant injury at 500 g/ha: 500 g ai/ha, approx. ten days
Method in brief: as §1

[6] = tested on: galium (catchweed bedstraw, Galium aparine); assay: Test B pre-/postemergence plant response; conditions: Preemergence
Method in brief: (§2)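 Response scores were assigned visually after 13 to 15 days in a greenhouse, comparing treated pots with controls on a 0–100 scale where 100 denotes complete control. Preemergence treatments went onto freshly seeded loam/sand soil; postemergence treatments onto plants 2 to 18 cm tall.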

[7] = tested on: nightshade (eastern black nightshade, Solanum ptycanthum); assay: Test B pre-/postemergence plant response; conditions: Preemergence
Method in brief: as §2

[8] = tested on: sunflower (common oilseed sunflower, Helianthus annuus); assay: Test B pre-/postemergence plant response; conditions: Preemergence
Method in brief: as §2

[9] = tested on: canarygrass (Phalaris minor); assay: Test B postemergence plant response
Method in brief: (§3)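 Plants grown in peat/vermiculite medium were sprayed postemergence at 2–18 cm height (1- to 4-leaf stage). After 13–15 days in the greenhouse, response was rated visually against untreated controls on a 0–100 scale (0 no effect, 100 complete control).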

[10] = tested on: chickweed (Stellaria media); assay: Test B postemergence plant response
Method in brief: as §3

[11] = tested on: windgrass (Apera spica-venti); assay: Test B postemergence plant response
Method in brief: as §3

[12] = tested on: winter barley (Hordeum vulgare); assay: Test B postemergence plant response
Method in brief: as §3

[13] = post-emergence, Postemergence, 0 to 100 scale where 0 is no effect and 100 is complete control
[14] = pre-emergence, Preemergence, 0 to 100 scale, 0 = no effect, 100 = complete control
[15] = post-emergence, Postemergence, 0 to 100 scale, 0 = no effect, 100 = complete control
[16] = pre-emergence, Preemergence, visual injury, 0 to 100 scale (0 no effect, 100 complete control)
[17] = 31 g ai/ha, scale 0 to 100 (0 no effect, 100 complete control)
[18] = 62 g ai/ha, scale 0 to 100, 0 no effect, 100 complete control
[19] = 125 g ai/ha, scale 0 to 100, 0 no effect, 100 complete control
[20] = 62 g ai/ha, postemergence, 0 is no effect, 100 is complete control, 13 to 15 days

SMILES: O=C1CCCC(O)=C1C(=O)c1cnc(-c2cccnc2)n(-c2ccccc2)c1=O [Compound 113, 5-[(2-hydroxy-6-oxo-1-cyclohexen-1-yl)carbonyl]-3-phenyl-2-(3-pyridinyl)-4(3H)-pyrimidone]
- Corn plant response rating (crop injury, 0 = no effect, 100 = complete kill) at 125 g/ha (corn (Zea mays); [13]): 0%
- Corn plant response rating (crop injury, 0 = no effect, 100 = complete kill) at 500 g/ha (corn (Zea mays); post-emergence, Postemergence, 500 g ai/ha, 0 to 100 scale, 0 = no effect, 100 = complete control, approx. ten days): 60%
- Corn plant response rating (crop injury, 0 = no effect, 100 = complete kill) at 125 g/ha (corn (Zea mays); [14]): 0%
- pest or weed control at 125 g/ha [1, 13]: 90%
- pest or weed control at 500 g/ha [1, 15]: 100%
- pest or weed control at 125 g/ha [1, 14]: 70%
- pest or weed control at 500 g/ha [1, 16]: 90%
- pest or weed control at 125 g/ha [2, 13]: 100%
- pest or weed control at 500 g/ha [2, 15]: 100%
- pest or weed control at 125 g/ha [2, 14]: 70%
- pest or weed control at 500 g/ha [2, 16]: 100%
- pest or weed control at 125 g/ha [3, 13]: 100%
- pest or weed control at 500 g/ha [3, 15]: 100%
- pest or weed control at 125 g/ha [3, 14]: 30%
- pest or weed control at 500 g/ha [3, 16]: 80%
- pest or weed control at 125 g/ha [4, 13]: 100%
- pest or weed control at 500 g/ha [4, 15]: 100%
- pest or weed control at 125 g/ha [4, 14]: 100%
- pest or weed control at 500 g/ha [4, 16]: 100%
- plant injury at 125 g/ha [5, 13]: 0%
- plant injury at 500 g/ha [5, 15]: 60%
- plant injury at 125 g/ha [5, 14]: 0%
- plant injury at 500 g/ha [5, 16]: 0%
- Plant response rating, Galium [6, 17]: 50
- Plant response rating, Galium [6, 18]: 70
- Plant response rating, Galium [6, 19]: 85
- Galium plant response rating ([6]; 250 g ai/ha, 0 to 100 scale): 95
- Plant response rating, Nightshade [7, 17]: 98
- Plant response rating, Nightshade [7, 18]: 98
- Plant response rating, Nightshade [7, 19]: 100
- Nightshade plant response rating ([7]; 250 g ai/ha, 0 to 100 scale): 100
- Plant response rating, Sunflower [8, 17]: 75
- Plant response rating, Sunflower [8, 18]: 80
- Plant response rating, Sunflower [8, 19]: 90
- Sunflower plant response rating ([8]; 250 g ai/ha, 0 to 100 scale): 95
- Canarygrass plant response rating (0 to 100 scale) [9, 20]: 90
- pest or weed control at 31 g/ha ([9]; Phalaris minor, post-emergence, 360 h, 31 g ai/ha, postemergence, scale 0 to 100, 0 is no effect, 100 is complete control, read-out: Plant response rating, Canarygrass): 65%
- pest or weed control at 250 g/ha ([9]; Phalaris minor, post-emergence, 360 h, Postemergence, 250 g ai/ha, scale 0 to 100 (0 no effect, 100 complete control), read-out: Plant response rating, Canarygrass): 90%
- Chickweed plant response rating (0 to 100 scale) [10, 20]: 98
- pest or weed control at 31 g/ha ([10]; Stellaria media, post-emergence, 360 h, 31 g ai/ha, postemergence, scale 0 to 100, 0 is no effect, 100 is complete control, read-out: Plant response rating, Chickweed): 98%
- pest or weed control at 125 g/ha ([10]; Stellaria media, post-emergence, 360 h, Postemergence, 125 g ai/ha, scale 0 to 100 (0 no effect, 100 complete control), read-out: Plant response rating, Chickweed): 100%
- pest or weed control at 250 g/ha ([10]; Stellaria media, post-emergence, 360 h, Postemergence, 250 g ai/ha, scale 0 to 100 (0 no effect, 100 complete control), read-out: Plant response rating, Chickweed): 100%
- Windgrass plant response rating (0 to 100 scale) [11, 20]: 30
- pest or weed control at 125 g/ha ([11]; Apera spica-venti, post-emergence, 360 h, Postemergence, 125 g ai/ha, scale 0 to 100 (0 no effect, 100 complete control), read-out: Plant response rating, Windgrass): 35%
- Barley plant response rating (0 to 100 scale) [12, 20]: 5
- plant injury at 31 g/ha ([12]; Hordeum vulgare, post-emergence, 31 g ai/ha, postemergence, scale 0 to 100, 0 is no effect, 100 is complete control, read-out: Plant response rating, Barley): 0%
- plant injury at 125 g/ha ([12]; Hordeum vulgare, post-emergence, Postemergence, 125 g ai/ha, scale 0 to 100 (0 no effect, 100 complete control), read-out: Plant response rating, Barley): 5%
- plant injury at 250 g/ha ([12]; Hordeum vulgare, post-emergence, Postemergence, 250 g ai/ha, scale 0 to 100 (0 no effect, 100 complete control), read-out: Plant response rating, Barley): 20%
